Test results from publication PMC6002545, “Deciphering the late steps of rifamycin biosynthesis” (Nature Communications, 2018).

Biological target: T1, Rif16 (Amycolatopsis mediterranei, UniProt A0A0H3CVZ6)
T1 construct: gene AMED_0653; N-terminally His6-tagged Rif16 (rif16 from A. mediterranei S699)
Experiment: Type I spectral substrate binding titration; co-crystal structure at […] Å

T1 sequence (A0A0H3CVZ6 entry or part of it): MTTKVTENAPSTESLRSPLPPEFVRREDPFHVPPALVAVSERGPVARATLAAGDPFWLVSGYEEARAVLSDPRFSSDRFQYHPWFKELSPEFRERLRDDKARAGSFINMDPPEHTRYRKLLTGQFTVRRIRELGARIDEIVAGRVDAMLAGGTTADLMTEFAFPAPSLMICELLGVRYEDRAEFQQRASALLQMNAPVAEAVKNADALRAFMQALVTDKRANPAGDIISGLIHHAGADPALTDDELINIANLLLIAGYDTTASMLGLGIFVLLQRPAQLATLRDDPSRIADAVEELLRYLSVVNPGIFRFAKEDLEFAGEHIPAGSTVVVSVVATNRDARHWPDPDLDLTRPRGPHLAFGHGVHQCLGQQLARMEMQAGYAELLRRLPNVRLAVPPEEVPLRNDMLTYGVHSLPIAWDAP

CO[C@H]1/C=C/O[C@@]2(C)Oc3c(C)c(O)c4c(O)c(cc(OC(=O)CO)c4c3C2=O)NC(=O)/C(C)=C/C=C/[C@H](C)[C@H](O)[C@@H](C)[C@@H](O)[C@@H](C)[C@H](OC(C)=O)[C@@H]1C [R-L, rifamycin L] gave a Kd of 1.3 ± 0.1 µM.
